# Laboratory results: US20150141439A1, “PHARMACEUTICAL COMPOSITION FOR THE PREVENTION OR TREATMENT OF BRAIN TUMOR OR TEMODAL RESISTANT GLIOBLASTOMA MULTIFORM COMPRISING AZATHIOPRINE AS AN ACTIVE INGREDIENT” (KOREA RESEARCH INSTITUTE OF CHEMICAL TECHNOLOGY, priority 2012, published 2015)
# Key:
# [1] = tested on: HepG2 Human hepatocarcinoma; experiment: Secondary cytotoxicity test, HepG2; assay type: cell-based
# Method: (§1) Particularly, the cell growth inhibition effect was measured by WST-1 cell proliferation assay [http://www.roche-applied-science.com/PROD_INF/MANUALS/CELL_MAN/apoptosis—087—088.pdf]. The compound of formula 1 was loaded in a 384-well cell culture plate. Three types of glioblastoma multiform cell lines [proneural subtype (559T), mesenchymal subtype (592T), and classical subtype (626T)], normal human astrocytes (NHA), a lung cancer cell line (A549), and a glioblastoma multiform cell line (U87MG) were distributed in the plate at the density of 4.5×10^3 cells/well, and the medium was filled up to make 50 μl per well. At this time, the concentration of the solvent DMSO for the compound of formula 1 was no more than 0.2%. After culturing the cells for 72 hours, 5 mg/ml of WST-1 reagent was added by 5 μl per well, followed by reaction for 3˜4 hours. Then OD450 was measured to investigate the effect of the compound of formula 1 on cell proliferation.
# (§2) To investigate the cell growth inhibition effect of the compound of formula 1 of the present invention (azathioprine) in many different cell lines, secondary cytotoxicity test was performed with the cell lines listed in Table 5 by the same manner as described in Example 1.
# [2] = tested on: U2932 Human DLBCL (Diffuse large B-cell lymphoma); experiment: Secondary cytotoxicity test, U2932; assay type: cell-based
# Method: as §1, §2
# [3] = tested on: MCF-7 Human breast adenocarcinoma; experiment: Secondary cytotoxicity test, MCF-7; assay type: cell-based; conditions: MCF7
# Method: as §1, §2
# [4] = tested on: HaCat Human keratinocyte; experiment: Secondary cytotoxicity test, HaCat; assay type: cell-based
# Method: as §1, §2
# [5] = tested on: NCI-H23 Human lung adenocarcinoma; experiment: Secondary cytotoxicity test, NCI-H23; assay type: cell-based
# Method: as §1, §2
# [6] = tested on: HCT-116 Human colorectal carcinoma; experiment: Secondary cytotoxicity test, HCT-116; assay type: cell-based
# Method: as §1, §2
# [7] = tested on: Hela Human adenocarcinoma; experiment: Secondary cytotoxicity test, Hela; assay type: cell-based
# Method: as §1, §2
# [8] = tested on: CCD986SK Human fibroblast; experiment: Secondary cytotoxicity test, CCD986SK; assay type: cell-based; conditions: CCD-986Sk
# Method: as §1, §2
# [9] = tested on: PC3 Human prostate adenocarcinoma; experiment: Secondary cytotoxicity test, PC3; assay type: cell-based; conditions: PC-3
# Method: as §1, §2
# [10] = tested on: MKN45 Human stomach adenocarcinoma; experiment: Secondary cytotoxicity test, MKN45; assay type: cell-based; conditions: MKN-45
# Method: as §1, §2
# [11] = tested on: GBM #8 glioblastoma multiform patient originated cells; experiment: Neurosphere formation inhibition, GBM #8; assay type: cell-based, human; set-up: key: S: strong effect; I: intermediate effect; R: rare effect; conditions: GBM #8, type C (mesenchymal), Temodal 20 μM, duration 15 day
# Method: (§3) Particularly, to investigate neurosphere formation, glioblastoma multiform cells were cultured for a certain time and the cells were distributed again in culture vessels, followed by additional culture. Then, the number of newly generated neurospheres was measured. First, the glioblastoma multiform patient originated cells were sub-cultured, which were distributed in a 96-well plate (20, 50, and 200 cells in 50 μl of culture medium/well). 2, 6, and 20 μM of the compound of formula 1 (azathioprine) and the compound of Comparative Example 1 (Temodal) were treated thereto by 50 μl per well to make the final concentrations of 1, 3, and 10 μM. Then, the compound of formula 1 (azathioprine) and the compound of Comparative Example 1 (Temodal) were added to 50 μl of cell culture medium with the same concentrations as the above once a week, which were then cultured for 7˜23 days. When neurosphere was formed at least 50 μm in the control group not treated with the compound, the number of neurospheres in each well was counted to compare the neurosphere formation before and after the treatment of the compound of formula 1 (azathioprine) and the compound of Comparative Example 1 (Temodal).
# (§4) The glioblastoma multiform cells used in this experiment were classified into 4 types, which are type A, type B, type C, and type D, according to the gene expression pattern. […]
# [12] = tested on: GBM #1 glioblastoma multiform patient originated cells; experiment: Neurosphere formation inhibition, GBM #1; assay type: cell-based, human; set-up: key to inhibition of neurosphere formation: S: strong effect; I: intermediate effect; R: rare effect; conditions: GBM #1, type A (proneural), Temodal 20 μM, duration 7 day
# Method: as §3
# The glioblastoma multiform cells used in this experiment were classified into 4 types, which are type A, type B, type C, and type D, according to the gene expression pattern. Methylation of MGMT (O6-me-G methyltransferase), the DNA repair protein, was confirmed in each cell line. At that time, type A [GBM #1, #2, #3] was proneural subtype, type B [GBM #4, #5, #6, #7] was classical subtype, type C [GBM #8] was mesenchymal subtype, and type D [GBM #9, #10] was non-classified glioblastoma multiform.
# [13] = tested on: GBM #4 glioblastoma multiform patient originated cells; experiment: Neurosphere formation inhibition, GBM #4; assay type: cell-based, human; set-up: key: S: strong effect; I: intermediate effect; R: rare effect; conditions: GBM #4, type B (classical), Temodal 20 μM, duration 9 day
# Method: as §3, with “2, 6, and 20 μM of the compound of formula 1 (azathioprine) and the compound of Comparative Example 1 (Temodal) were treated thereto by 50 μl per well to make the final concentrations of 1, 3, and 10 μM.” left out
# (§5) The glioblastoma multiform cells used in this experiment were classified into 4 types, which are type A, type B, type C, and type D, according to the gene expression pattern. Methylation of MGMT (O6-me-G methyltransferase), the DNA repair protein, was confirmed in each cell line. […]
# [14] = tested on: GBM #7 glioblastoma multiform patient originated cells; experiment: Neurosphere formation inhibition, GBM #7; assay type: cell-based, human; set-up: key: S: strong effect; I: intermediate effect; R: rare effect; conditions: GBM #7, type B (classical), Temodal 20 μM, duration 23 day
# Method: as §3, §4
# [15] = tested on: glioblastoma multiform cells transplanted in the brain of a mouse; experiment: Glioblastoma multiform orthotopic animal model, survival; assay type: in vivo; conditions: single treatment; for Average Survival Period: Temodal 65 mg/kg oral for 5 days from day 17 after transplantation, control 27 days; for Survival Period Extension Rate (%): vs. untreated control, Temodal 65 mg/kg oral for 5 days from day 17
# Method: Following experiment was performed to investigate the radiosensitizing effect and chemosensitizing effect of the compound of formula 1 (azathioprine) in the glioblastoma multiform orthotopic animal model.
# Particularly, to investigate the resistance against Temodal or radiotherapy in glioblastoma multiform, glioblastoma multiform cells were cultured. The cultured cells (2×10^5/5 μl) were transplanted in the brain of a mouse. 17 days later, the administration of Temodal (65 mg/kg, oral-administration) or radiotherapy (2 Gy) began, which continued for 5 days. The average survival period was investigated. […] For the comparison, the survival period of the group treated with “Avastin”, the well-known anticancer agent, is also presented.
# Glioblastoma multiform, glioblastoma multiform cells were cultured. The cultured cells (2×10^5/5 μl) were transplanted in the brain of a mouse. 17 days later, the administration of Temodal (65 mg/kg, oral-administration) or radiotherapy (2 Gy) began, which continued for 5 days. Unlike the above experiment, the compound of formula 1 of the present invention (azathioprine) was co-treated to the mouse by oral-administration at the dose of 20 mg/kg every day after 11 days from the glioblastoma multiform transplantation in the mouse brain. Then, the average survival period was investigated.
# [16] = tested on: GBM #10 glioblastoma multiform patient originated cells; experiment: Neurosphere formation inhibition, GBM #10; assay type: cell-based, human; set-up: key: S: strong effect; I: intermediate effect; R: rare effect; conditions: GBM #10, type D (non-classified), Temodal 20 μM, duration 10 day
# Method: as §3, with “2, 6, and 20 μM of the compound of formula 1 (azathioprine) and the compound of Comparative Example 1 (Temodal) were treated thereto by 50 μl per well to make the final concentrations of 1, 3, and 10 μM.” left out
# as §5
# [17] = tested on: GBM #9 glioblastoma multiform patient originated cells; experiment: Neurosphere formation inhibition, GBM #9; assay type: cell-based, human; set-up: key: S: strong effect; I: intermediate effect; R: rare effect; conditions: GBM #9, type D (non-classified), Temodal 20 μM, duration 21 day
# Method: as §3, with “2, 6, and 20 μM of the compound of formula 1 (azathioprine) and the compound of Comparative Example 1 (Temodal) were treated thereto by 50 μl per well to make the final concentrations of 1, 3, and 10 μM.” left out
# as §5
# [18] = tested on: GBM #6 glioblastoma multiform patient originated cells; experiment: Neurosphere formation inhibition, GBM #6; assay type: cell-based, human; set-up: key: S: strong effect; I: intermediate effect; R: rare effect; conditions: GBM #6, type B (classical), Temodal 20 μM, duration 23 day
# Method: as §3, §4
# [19] = tested on: GBM #3 glioblastoma multiform patient originated cells; experiment: Neurosphere formation inhibition, GBM #3; assay type: cell-based, human; set-up: key: S: strong effect; I: intermediate effect; R: rare effect; conditions: GBM #3, type A (proneural), Temodal 20 μM, duration 21 day
# Method: as §3, with “2, 6, and 20 μM of the compound of formula 1 (azathioprine) and the compound of Comparative Example 1 (Temodal) were treated thereto by 50 μl per well to make the final concentrations of 1, 3, and 10 μM.” left out
# as §5
# [20] = tested on: GBM #5 glioblastoma multiform patient originated cells; experiment: Neurosphere formation inhibition, GBM #5; assay type: cell-based, human; set-up: key: S: strong effect; I: intermediate effect; R: rare effect; conditions: GBM #5, type B (classical), Temodal 20 μM, duration 21 day
# Method: as §3, with “2, 6, and 20 μM of the compound of formula 1 (azathioprine) and the compound of Comparative Example 1 (Temodal) were treated thereto by 50 μl per well to make the final concentrations of 1, 3, and 10 μM.” left out
# as §5
# [21] = tested on: GBM #2 glioblastoma multiform patient originated cells; experiment: Neurosphere formation inhibition, GBM #2; assay type: cell-based, human; set-up: key: S: strong effect; I: intermediate effect; R: rare effect; conditions: GBM #2, type A (proneural), Temodal 20 μM, duration 15 day
# Method: as §3, with “2, 6, and 20 μM of the compound of formula 1 (azathioprine) and the compound of Comparative Example 1 (Temodal) were treated thereto by 50 μl per well to make the final concentrations of 1, 3, and 10 μM.” left out
# as §5
# [22] = tested on: cells of lung cancer with brain metastasis transplanted in the mouse brain; experiment: Animal test with cells of lung cancer with brain metastasis, survival; assay type: in vivo; conditions: azathioprine 2 mg/kg oral every day after day 11, Temodal (TMZ) 65 mg/kg oral 5 days from day 17
# Method: The cells of lung cancer with brain metastasis were obtained from Samsung Hospital (Seoul) and cultured. The cultured cells (2×10^5/5 μl) were transplanted in the mouse brain. 17 days later, Temodal administration (65 mg/kg, oral administration) began, which continued for 5 days. The compound of formula 1 of the present invention (azathioprine) was co-treated to the mouse by oral-administration at the dose of 2 mg/kg every day after 11 days from the transplantation of the cells of lung cancer with brain metastasis in the mouse brain. Then, the average survival period was investigated.
compound,measurement,setting,value
"COc1cccc2c1C(=O)c1c(O)c3c(c(O)c1C2=O)C[C@@](O)(C(=O)CO)C[C@@H]3O[C@H]1C[C@H](N)[C@H](O)[C@H](C)O1 [Doxorubicin, reference compound]",IC50,[1],700 nM
same,IC50,[2],440 nM
same,IC50,[3],550 nM
same,IC50,[4],230 nM
same,IC50,[5],190 nM
same,IC50,[6],390 nM
same,IC50,[7],370 nM
same,IC50,[8],960 nM
same,IC50,[9],350 nM
same,IC50,[10],280 nM
"Cn1nnc2c(C(N)=O)ncn2c1=O [Temodal, temozolomide]",inhibition of neurosphere formation,[11],R
same,inhibition of neurosphere formation,[12],S
same,inhibition of neurosphere formation,[13],S
same,inhibition of neurosphere formation,[14],S
same,Average Survival Period,[15],31 days
same,Survival Period Extension Rate (%),[15],19%
same,inhibition of neurosphere formation,[16],R
same,inhibition of neurosphere formation,[17],S
same,inhibition of neurosphere formation,[18],S
same,inhibition of neurosphere formation,[19],R
same,inhibition of neurosphere formation,[20],S
same,inhibition of neurosphere formation,[21],R
same,Average Survival Period,[22],63 days
same,Survival Period Extension Rate (%),[22],100-129%
Avastin: the well-known anticancer agent,Average Survival Period,[15],28 days
same,Survival Period Extension Rate (%),[15],8%
